Laboratory results from ChEMBL document CHEMBL1201862, “PubChem BioAssay data set” (2004).
Blank lines part the entries; values can stand above or below the molecule they belong to. Active and inactive are the calls of the source.

Assays:
[1] = biological target: Cytochrome P450 2C19 (Homo sapiens, UniProt P33261); test: qHTS Assay for Inhibitors and Substrates of Cytochrome P450 2C19. [Related pubchem assays: 410 ]; type: ADME; conditions: read-out: Potency
[2] = biological target: Cytochrome P450 3A4 (Homo sapiens, UniProt P08684); conditions: Potency;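 further: confirmatory qHTS run detecting inhibitors and substrates of CYP3A4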
Sequence of Cytochrome P450 3A4 (P08684 whole entry): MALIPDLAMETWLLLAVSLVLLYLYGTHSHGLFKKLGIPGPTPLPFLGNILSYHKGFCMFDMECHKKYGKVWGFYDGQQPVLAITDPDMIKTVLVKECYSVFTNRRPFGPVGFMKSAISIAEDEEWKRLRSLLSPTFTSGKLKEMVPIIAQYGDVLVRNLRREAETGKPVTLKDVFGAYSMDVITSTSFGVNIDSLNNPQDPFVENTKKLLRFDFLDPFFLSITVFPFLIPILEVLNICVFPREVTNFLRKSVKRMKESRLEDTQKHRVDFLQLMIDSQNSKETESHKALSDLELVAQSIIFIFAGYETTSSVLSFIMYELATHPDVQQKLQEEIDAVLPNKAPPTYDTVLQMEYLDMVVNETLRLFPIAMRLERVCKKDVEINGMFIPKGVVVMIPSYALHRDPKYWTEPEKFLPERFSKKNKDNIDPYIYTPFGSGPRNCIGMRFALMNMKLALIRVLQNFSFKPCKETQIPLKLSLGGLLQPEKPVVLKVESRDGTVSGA

[3] = biological target: Protein-tyrosine kinase 2-beta (Homo sapiens, UniProt Q14289);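 further: potency of inhibitors of PYK2 kinase phosphorylation of poly-GT substrate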
Sequence of Protein-tyrosine kinase 2-beta (Q14289 whole entry): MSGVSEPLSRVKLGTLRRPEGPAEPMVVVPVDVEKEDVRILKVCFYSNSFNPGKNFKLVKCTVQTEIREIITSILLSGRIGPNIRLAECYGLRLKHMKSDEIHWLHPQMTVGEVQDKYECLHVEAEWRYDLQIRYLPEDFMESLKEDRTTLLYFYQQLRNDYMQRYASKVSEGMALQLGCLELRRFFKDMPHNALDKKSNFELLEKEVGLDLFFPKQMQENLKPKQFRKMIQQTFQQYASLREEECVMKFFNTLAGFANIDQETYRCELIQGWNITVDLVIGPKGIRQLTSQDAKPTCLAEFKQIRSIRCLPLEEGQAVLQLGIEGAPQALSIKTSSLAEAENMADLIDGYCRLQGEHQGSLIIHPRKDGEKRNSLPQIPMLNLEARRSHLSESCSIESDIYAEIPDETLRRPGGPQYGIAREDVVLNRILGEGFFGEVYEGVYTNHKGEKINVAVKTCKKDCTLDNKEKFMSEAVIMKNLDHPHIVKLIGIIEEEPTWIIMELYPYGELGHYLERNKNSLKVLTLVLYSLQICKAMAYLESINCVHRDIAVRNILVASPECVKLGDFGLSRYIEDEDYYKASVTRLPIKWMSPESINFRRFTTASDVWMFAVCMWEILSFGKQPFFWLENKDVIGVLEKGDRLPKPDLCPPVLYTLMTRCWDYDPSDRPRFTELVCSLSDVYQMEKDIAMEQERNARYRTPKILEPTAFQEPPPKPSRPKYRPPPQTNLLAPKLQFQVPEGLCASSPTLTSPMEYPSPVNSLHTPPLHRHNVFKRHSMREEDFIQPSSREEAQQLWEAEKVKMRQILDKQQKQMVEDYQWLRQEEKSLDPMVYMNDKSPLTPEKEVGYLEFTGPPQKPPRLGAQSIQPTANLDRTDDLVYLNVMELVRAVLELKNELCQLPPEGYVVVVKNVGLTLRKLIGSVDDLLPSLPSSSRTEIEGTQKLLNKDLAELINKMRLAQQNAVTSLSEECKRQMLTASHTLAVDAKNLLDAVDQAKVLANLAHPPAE

[4] = biological target: T1, Estrogen receptor (Homo sapiens, UniProt P03372);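 further: potency for inhibiting coactivator peptide recruitment to the receptor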
T1 sequence (P03372 whole entry): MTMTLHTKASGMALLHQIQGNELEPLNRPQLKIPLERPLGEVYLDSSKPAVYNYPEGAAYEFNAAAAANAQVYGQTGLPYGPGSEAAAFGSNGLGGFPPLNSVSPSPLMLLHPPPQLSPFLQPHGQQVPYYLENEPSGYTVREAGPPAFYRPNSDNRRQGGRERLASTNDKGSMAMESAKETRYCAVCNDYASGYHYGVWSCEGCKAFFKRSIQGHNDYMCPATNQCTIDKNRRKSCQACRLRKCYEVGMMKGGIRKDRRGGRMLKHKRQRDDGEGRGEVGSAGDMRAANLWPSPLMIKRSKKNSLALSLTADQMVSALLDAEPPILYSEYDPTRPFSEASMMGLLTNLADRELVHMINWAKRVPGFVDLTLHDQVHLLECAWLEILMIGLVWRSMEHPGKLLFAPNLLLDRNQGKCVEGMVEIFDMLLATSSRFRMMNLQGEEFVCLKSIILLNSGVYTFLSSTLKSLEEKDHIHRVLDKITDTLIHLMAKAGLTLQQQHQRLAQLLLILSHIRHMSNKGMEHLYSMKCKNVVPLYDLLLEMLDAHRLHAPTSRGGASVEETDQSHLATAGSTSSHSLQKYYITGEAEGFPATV

[5] = cAMP pathway inhibition in counterscreen cell line – TR-FRET cAMP detection, counter-screen for MC4R biased antagonist project, dose response (AID 602305); type: functional, cell-based;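 further: U2OS cells stimulated with forskolin near its EC80 as the cAMP inducer; potency is for inhibition of forskolin-stimulated cAMP signaling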
[6] = biological target: Melanocortin receptor 4 (Homo sapiens, UniProt P32245); test: inhibitors of MC4R cAMP signaling – cell-based, TR-FRET, biased antagonists, dose response (AID 602298); type: functional;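 further: antagonist potency against agonist-stimulated cAMP production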
Sequence of Melanocortin receptor 4 (P32245 whole entry): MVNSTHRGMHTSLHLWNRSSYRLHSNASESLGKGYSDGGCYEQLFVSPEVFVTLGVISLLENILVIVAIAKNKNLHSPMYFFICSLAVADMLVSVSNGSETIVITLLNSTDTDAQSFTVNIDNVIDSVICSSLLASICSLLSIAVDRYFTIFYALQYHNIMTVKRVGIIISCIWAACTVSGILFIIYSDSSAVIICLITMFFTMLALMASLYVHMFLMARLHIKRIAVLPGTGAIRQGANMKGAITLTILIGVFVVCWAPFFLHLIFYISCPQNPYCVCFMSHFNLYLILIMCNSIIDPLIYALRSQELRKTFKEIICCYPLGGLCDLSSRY

[7] = biological target: Beta-2 adrenergic receptor (Homo sapiens, UniProt P07550); test: ADRB2 activation measured by internalization – cell-based, FAP fluorogen, flow cytometry, cherry pick 1, dose response (AID 588763); type: functional
Sequence of Beta-2 adrenergic receptor (P07550 whole entry): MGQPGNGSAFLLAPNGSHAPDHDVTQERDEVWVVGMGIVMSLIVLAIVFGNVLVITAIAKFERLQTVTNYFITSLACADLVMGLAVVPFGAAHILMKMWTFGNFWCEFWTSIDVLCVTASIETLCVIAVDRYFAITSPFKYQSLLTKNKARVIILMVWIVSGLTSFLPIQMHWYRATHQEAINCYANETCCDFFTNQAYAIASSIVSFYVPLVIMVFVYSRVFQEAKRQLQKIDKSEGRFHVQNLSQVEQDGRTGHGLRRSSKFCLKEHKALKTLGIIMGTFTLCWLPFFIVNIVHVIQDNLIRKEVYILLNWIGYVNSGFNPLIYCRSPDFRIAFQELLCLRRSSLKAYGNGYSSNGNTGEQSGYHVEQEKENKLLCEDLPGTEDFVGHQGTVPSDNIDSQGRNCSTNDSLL

[8] = biological target: E3 ubiquitin-protein ligase Mdm2 (Homo sapiens, UniProt Q00987); test: MDM2-luc reporter signal enhancers, multi-concentration potency testing, MDM2 ubiquitin-protein ligase inhibitor program, whole-cell format, luminescence detection, 384-well microplate (AID 1394); type: functional;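 further: MDM2 E3 inhibitors raise luminescence so EC50 is for signal enhancement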
[9] = system: HEK293; test: inhibition of NOD1-driven NF-kB reporter – cell-based, luminescence, uHTS, primary screen (AID 1578); type: functional; conditions: Homo sapiens
[10] = system: BJ; test: cells; type: functional, cell-based; conditions: Homo sapiens
[11] = biological target: Nucleotide-binding oligomerization domain-containing protein 2 (Homo sapiens, UniProt Q9HC29); test: inhibition of NOD2-driven NF-kB reporter – cell-based, luminescence, uHTS, HEK293 (AID 1566); type: functional
Sequence of Nucleotide-binding oligomerization domain-containing protein 2 (Q9HC29 whole entry, the tested form may be a part): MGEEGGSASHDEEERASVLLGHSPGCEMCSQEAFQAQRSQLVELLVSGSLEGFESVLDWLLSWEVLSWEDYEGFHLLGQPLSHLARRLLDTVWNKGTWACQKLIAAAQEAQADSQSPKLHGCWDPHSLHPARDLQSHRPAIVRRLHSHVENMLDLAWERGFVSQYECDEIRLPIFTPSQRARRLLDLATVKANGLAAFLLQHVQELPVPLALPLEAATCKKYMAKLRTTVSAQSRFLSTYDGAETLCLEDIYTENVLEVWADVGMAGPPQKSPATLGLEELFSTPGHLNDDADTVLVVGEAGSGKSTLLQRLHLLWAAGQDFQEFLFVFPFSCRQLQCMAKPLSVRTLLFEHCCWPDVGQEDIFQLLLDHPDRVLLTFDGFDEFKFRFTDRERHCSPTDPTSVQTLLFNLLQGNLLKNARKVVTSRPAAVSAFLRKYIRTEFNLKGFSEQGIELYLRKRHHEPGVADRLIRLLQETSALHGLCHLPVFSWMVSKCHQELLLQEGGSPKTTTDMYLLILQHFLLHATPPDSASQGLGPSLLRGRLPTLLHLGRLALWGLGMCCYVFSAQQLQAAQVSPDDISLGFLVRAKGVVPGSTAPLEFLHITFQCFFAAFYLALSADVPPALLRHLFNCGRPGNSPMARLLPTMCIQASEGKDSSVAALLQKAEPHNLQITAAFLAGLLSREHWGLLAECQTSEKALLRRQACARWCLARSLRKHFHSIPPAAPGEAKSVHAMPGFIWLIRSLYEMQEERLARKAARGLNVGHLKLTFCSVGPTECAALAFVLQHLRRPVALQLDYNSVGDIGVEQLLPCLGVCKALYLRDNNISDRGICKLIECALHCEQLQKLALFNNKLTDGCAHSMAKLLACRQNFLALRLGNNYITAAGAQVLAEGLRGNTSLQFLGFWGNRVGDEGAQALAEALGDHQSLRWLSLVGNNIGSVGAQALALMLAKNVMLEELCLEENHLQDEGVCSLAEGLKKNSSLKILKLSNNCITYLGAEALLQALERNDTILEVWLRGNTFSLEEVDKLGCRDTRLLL

[12] = system: HEK293; test: NOD2 signaling inhibitors in MDP-stimulated cells, cell-based, uHTS, luminescence (AID 2001); type: functional; conditions: Homo sapiens
[13] = system: BJ; test: BJ-TERT fibroblast viability loss – cell-based, RAS-independent, luminescence, dose response (AID 1933); type: functional; conditions: Homo sapiens
[14] = system: BJ; test: BJ-TERT-LT-ST fibroblast viability loss – cell-based, RAS-independent, luminescence, dose response (AID 1935); type: functional; conditions: Homo sapiens;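 further: BJ fibroblasts immortalized with TERT plus LT and ST oncogenes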
[15] = system: HEK293; test: cells; type: functional, cell-based; conditions: Homo sapiens
[16] = system: HEK293; test: cells; type: functional, cell-based; conditions: Homo sapiens; remark: listed apart in the source
[17] = DRD fibroblast viability loss – cell-based, non-viral oncogenic, luminescence, dose response (AID 1934); type: functional; conditions: Homo sapiens
[18] = system: HEK293; test: cells; type: functional, cell-based; conditions: Homo sapiens; remark: listed apart in the source
[19] = viability loss of HPDE-C7K cells – cell-based, fluorescence, HTS, primary screen (AID 431); type: functional; conditions: Homo sapiens
[20] = HPDE-C7 pancreatic duct cell viability loss – fluorescence, HTS (AID 430); type: functional, cell-based; conditions: Homo sapiens
[21] = biological target: NADPH oxidase 1 (Homo sapiens, UniProt Q9Y5S8); type: functional, cell-based;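 further: Cell-based assay with luminescence read-out, IC50 derived from inhibitor dose-response curves; intracellular ROS from endogenous NOX1 in intact HT29 colon cancer cells; potency of inhibitors that lower the ROS luminescence signal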
Sequence of NADPH oxidase 1 (Q9Y5S8 whole entry): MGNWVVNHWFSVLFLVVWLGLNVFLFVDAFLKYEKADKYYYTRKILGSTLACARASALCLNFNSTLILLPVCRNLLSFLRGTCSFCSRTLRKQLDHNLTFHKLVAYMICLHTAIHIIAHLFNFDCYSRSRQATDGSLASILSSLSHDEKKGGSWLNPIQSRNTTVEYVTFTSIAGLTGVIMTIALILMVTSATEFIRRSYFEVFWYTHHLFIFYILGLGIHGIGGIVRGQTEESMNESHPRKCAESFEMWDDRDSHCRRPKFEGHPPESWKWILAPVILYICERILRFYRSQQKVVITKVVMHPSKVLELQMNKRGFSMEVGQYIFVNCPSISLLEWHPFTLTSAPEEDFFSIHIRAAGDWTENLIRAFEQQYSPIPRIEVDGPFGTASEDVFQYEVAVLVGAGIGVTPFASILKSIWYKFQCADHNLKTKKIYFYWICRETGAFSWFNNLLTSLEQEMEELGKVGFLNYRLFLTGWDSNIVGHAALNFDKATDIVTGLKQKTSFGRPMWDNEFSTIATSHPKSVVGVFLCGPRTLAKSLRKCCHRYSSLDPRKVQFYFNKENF

[22] = biological target: Glyceraldehyde-3-phosphate dehydrogenase (Homo sapiens, UniProt P04406)
Sequence of Glyceraldehyde-3-phosphate dehydrogenase (P04406 whole entry): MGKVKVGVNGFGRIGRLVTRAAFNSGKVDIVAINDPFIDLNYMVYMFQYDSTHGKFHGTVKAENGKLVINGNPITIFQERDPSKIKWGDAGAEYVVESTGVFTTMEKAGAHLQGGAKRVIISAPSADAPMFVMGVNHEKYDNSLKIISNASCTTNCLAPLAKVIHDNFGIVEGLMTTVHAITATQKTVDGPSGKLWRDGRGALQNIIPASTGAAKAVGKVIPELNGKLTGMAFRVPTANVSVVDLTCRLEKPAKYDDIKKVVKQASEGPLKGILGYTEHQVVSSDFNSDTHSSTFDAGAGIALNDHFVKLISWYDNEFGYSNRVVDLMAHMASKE

[23] = biological target: T2, Bcl-2-related protein A1 (Mus musculus, UniProt Q07440); test: small-molecule antagonists of Bfl-1/BH3 interaction – biochemical, TR-FRET, mouse Bfl-1, confirmation (AID 621);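 further: TR-FRET binding of GST-Bfl-1 to FITC-labelled Bid peptide via terbium antibody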
T2 sequence (Q07440 whole entry): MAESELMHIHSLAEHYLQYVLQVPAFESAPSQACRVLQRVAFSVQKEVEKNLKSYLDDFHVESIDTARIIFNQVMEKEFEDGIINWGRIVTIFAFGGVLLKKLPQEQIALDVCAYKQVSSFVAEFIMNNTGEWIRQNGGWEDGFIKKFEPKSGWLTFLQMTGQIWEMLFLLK

[24] = biological target: T2, Bcl-2-related protein A1; test: Bfl-1 binding inhibitors, SAR follow-up, biochemical, fluorescence polarization (AID 1070)
[25] = biological target: Luciferin 4-monooxygenase (Photinus pyralis, UniProt P08659); test: inhibition of purified Photinus pyralis luciferase – biochemical, luminescence, dose response (AID 1891)
[26] = Luminescence Cell-Based Dose Confirmation HTS to Identify Inhibitors of Platelet Dense Granule Release. [Related pubchem assays: 1663 (Primary HTS), 1678 (Summary of Project)]; type: functional
[27] = biological target: Neuropeptide Y receptor type 1 (Homo sapiens, UniProt P25929); type: functional;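 further: HEK293 cells with a CNG channel challenged with NPY then isoproterenol; potency as antagonist that reverses NPY suppression of cAMP signal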
Sequence of Neuropeptide Y receptor type 1 (P25929 whole entry): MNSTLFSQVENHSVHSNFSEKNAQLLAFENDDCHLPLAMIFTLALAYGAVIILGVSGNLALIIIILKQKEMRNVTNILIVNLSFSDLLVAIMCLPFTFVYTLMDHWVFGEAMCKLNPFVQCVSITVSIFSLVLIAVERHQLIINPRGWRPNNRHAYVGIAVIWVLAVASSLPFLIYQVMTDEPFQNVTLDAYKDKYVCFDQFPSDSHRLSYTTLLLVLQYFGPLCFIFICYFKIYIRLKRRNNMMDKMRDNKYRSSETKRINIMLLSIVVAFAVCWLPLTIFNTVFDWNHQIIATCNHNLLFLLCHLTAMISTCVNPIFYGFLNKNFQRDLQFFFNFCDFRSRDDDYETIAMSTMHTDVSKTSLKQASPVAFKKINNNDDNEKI

[28] = biological target: Neuropeptide Y receptor type 2 (Homo sapiens, UniProt P49146); type: functional, cell-based;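 further: HEK293 cells expressing the receptor and a CNG channel; stimulus was NPY near EC95 followed by isoproterenol to raise cAMP; antagonist potency measured as restoring cAMP signal that NPY suppresses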
Sequence of Neuropeptide Y receptor type 2 (P49146 whole entry): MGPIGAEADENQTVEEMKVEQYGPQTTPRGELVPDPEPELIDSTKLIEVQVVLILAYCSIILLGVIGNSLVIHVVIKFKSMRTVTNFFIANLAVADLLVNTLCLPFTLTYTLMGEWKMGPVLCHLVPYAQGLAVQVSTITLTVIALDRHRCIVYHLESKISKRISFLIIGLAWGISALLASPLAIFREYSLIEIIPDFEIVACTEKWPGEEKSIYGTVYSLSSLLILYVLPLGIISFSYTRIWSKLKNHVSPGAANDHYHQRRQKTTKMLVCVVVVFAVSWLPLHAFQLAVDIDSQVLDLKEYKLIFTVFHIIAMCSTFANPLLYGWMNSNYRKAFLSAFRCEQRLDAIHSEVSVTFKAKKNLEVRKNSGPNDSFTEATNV

[29] = biological target: Mothers against decapentaplegic homolog 3 (Homo sapiens, UniProt P84022); test: inhibitors of SMAD-driven TGF-beta signaling – dose response (AID 715); type: functional

SMILES: CC1CCC2C(=O)N3C(CCC(C)[C@@H]3c3ccc(Br)cc3)C(=O)N2C1c1ccc(Br)cc1 (some centres undefined)
AC50 [1]: 3.98 µM (inconclusive) | AC50 [2]: 5.01 µM (inconclusive)

SMILES: O=C(COC(=O)c1ccccc1C(=O)c1ccc(Cl)c([N+](=O)[O-])c1)NC1CCCCCC1
IC50 [5]: > 64.6 µM (inactive) | IC50 [6]: 26.6 µM (inactive) | EC50 [7]: 42.3 µM (inactive) | EC50 [8]: 12.4 µM (not active) | EC50 [9]: 3.78 µM (active) | EC50 [10]: 9.86 µM (inconclusive) | EC50 [11]: > 20 µM (inactive) | IC50 [12]: 3.13 µM (active) | EC50 [13]: 4.41 µM (active) | EC50 [14]: 4.91 µM (inconclusive) | IC50 [15]: > 20 µM (inactive) | IC50 [16]: 1.9 µM (active) | EC50 [17]: 4.47 µM (active) | IC50 [18]: 18.3 µM (active)

SMILES: CCOP(=O)(c1ccccc1)c1nc(-c2ccccc2C)oc1N1CCCCC1 (centres undefined)
EC50 [19]: > 20 µM (not active) | EC50 [20]: > 20 µM (not active)

SMILES: C[C@@H]1CN(C2=C(Cl)C(=O)N(c3cccc([N+](=O)[O-])c3)C2=O)CCN1
IC50 [22]: > 100 µM (not active) | IC50 [23]: 9.03 µM (active) | IC50 [24]: 12.7 µM (active)

SMILES: O=C(Nc1ccccc1)OCc1cc(-c2ccccc2Cl)on1
EC50 [25]: > 112 µM (not active) | EC50 [26]: > 112 µM (not active) | IC50 [27]: 9 µM (active) | IC50 [28]: 14.7 µM (not active)

The next lines start with the values.

IC50 [3]: 2.08 µM (active) | IC50 [4]: 17.9 µM (active)
SMILES: O=c1oc2ccccc2n1CCn1c2ccccc2c2nc3ccccc3nc21

IC50 [21]: > 17 µM (not active)
SMILES: COc1ccc(-c2nc(-c3ccccc3)c(-c3ccccc3)[nH]2)cc1

IC50 [29]: 14.6 µM (active)
SMILES: Oc1ccccc1-c1nc(N2CCCC2)c2ccccc2n1
